Measurements reported in ChEMBL document CHEMBL6092174, “Synthesis and anti-influenza virus activity of substituted dibenzoxepine-based baloxavir derivatives” (Eur J Med Chem, 2024).

Tested on: Influenza A virus
Experiment: Antiviral activity against Influenza A virus NA-H274Y (A/PR/8/34) infected in dog MDCK cells assessed as reduction in cytopathic effect incubated for 2 days
Type: functional, organism-based

Structure (SMILES)	EC50 [nM]
O=C1c2c(O)c(=O)ccn2N([C@@H]2c3ccccc3OCc3c(Cl)cccc32)[C@@H]2COCCN12	20.5
O=C1c2c(O)c(=O)ccn2N([C@@H]2c3ccccc3SCc3c2ccc(F)c3F)[C@@H]2COCCN12 [BALOXAVIR]	2.18
O=C1c2c(O)c(=O)ccn2N([C@H]2c3ccc(F)cc3COc3ccccc32)[C@@H]2COCCN12	4.2
